In patent US10426762B2, “Inhibitors of hepatitis C virus polymerase” (COCRYSTAL DISCOVERY, INC., priority 2012, dated 2019):
pEC50, pIC50: −log10 of the molar value.

Each molecule was assayed against T1, HCV1b NS5B polymerase delta 21 (Hepatitis C virus genotype 1b, UniProt P26663) (assay: RNA-dependent RNA HCV NS5B (polymerase) assay and IC50 determination). Conditions: not given.
T1 construct: purified HCV1b NS5B polymerase delta 21
T1 sequence (P26663 2420-2989): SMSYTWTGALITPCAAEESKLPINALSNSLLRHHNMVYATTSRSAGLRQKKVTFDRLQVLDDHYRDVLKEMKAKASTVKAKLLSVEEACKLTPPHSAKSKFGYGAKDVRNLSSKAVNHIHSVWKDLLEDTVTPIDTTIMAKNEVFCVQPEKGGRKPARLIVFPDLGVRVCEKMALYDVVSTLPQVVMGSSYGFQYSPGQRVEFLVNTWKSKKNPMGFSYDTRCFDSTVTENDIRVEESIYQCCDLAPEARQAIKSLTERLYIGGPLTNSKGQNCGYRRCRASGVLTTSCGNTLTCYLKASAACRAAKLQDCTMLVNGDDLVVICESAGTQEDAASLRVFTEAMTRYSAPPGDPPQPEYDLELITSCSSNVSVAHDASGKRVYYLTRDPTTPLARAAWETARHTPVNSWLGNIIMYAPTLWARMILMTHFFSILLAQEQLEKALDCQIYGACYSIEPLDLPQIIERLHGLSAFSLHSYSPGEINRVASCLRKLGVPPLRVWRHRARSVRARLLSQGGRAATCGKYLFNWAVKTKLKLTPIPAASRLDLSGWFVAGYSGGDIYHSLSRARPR
Format: biochemical
Protocol: Example 212—RNA-Dependent RNA HCV NS5B (Polymerase) Assay and IC50 Determination
In vitro RNA-dependent RNA polymerase activity was determined in a reaction mixture (50 μL) containing 50 mM Tris-HCl, pH 7.5, 5 mM MgCl2, 1 mM dithiothreitol, 0.5% Triton® X-100, 10 μM of UTP, 0.1-0.5 μCi of α-^32P UTP (Perkin Elmer Life Sciences), 1 μg of polyA:U16 (Midland Oligo), and 0.6 μg of purified HCV1b NS5B polymerase delta 21. Different concentrations of compounds were added to the reaction mixtures. The reaction was carried out at RT (23° C.) for 60 min and then stopped by the addition of 100 μL of 50 mM EDTA. The reaction mixtures were filtered through either a DE81 membrane or a positively charged nylon membrane, and the membranes were then extensively washed with 30 mM sodium citrate, pH 7.0 and 300 mM NaCl. The radiolabeled RNA products were quantitated using a Storm™ PhosphorImager™ (GE life Sciences). IC50 values were calculated using GraFit 6 and GraphPad Prism 5 from triplicate assays.
`CC1CCC(C2=C(c3cc(-c4ccc(NC(=O)c5cscn5)cc4)sc3C(=O)O)CN(CC(O)CO)CC2)CC1` (stereo not shown) [Example 190, 3-(1-(2,3-dihydroxypropyl)-4-(4-methylcyclohexyl)-1,2,5,6-tetrahydropyridin-3-yl)-5-(4-(thiazole-4-carboxamido)phenyl)thiophene-2-carboxylic acid] showed a pIC50 of over 5.52.
In the case of `CC1CCC(C2=C(c3cc(-c4ccc(NC(=O)c5cscn5)c(F)c4)sc3C(=O)O)CN(C)CC2)CC1` (stereo not shown) [Example 198], the pIC50 was over 5.52.
Work on `Cc1cc(-c2cc(C3=C(C4CCC(C)CC4)CCN(Cc4cnn(C)c4)C3)c(C(=O)O)s2)ccc1NC(=O)c1cscn1` (stereo not shown) [Example 199, 3-(1-((1-methyl-1H-pyrazol-4-yl)methyl)-4-(4-methylcyclohexyl)-1,2,5,6-tetrahydropyridin-3-yl)-5-(3-methyl-4-(thiazole-4-carboxamido)phenyl)thiophene-2-carboxylic acid] yielded a pIC50 of over 5.52.
`CN1CCC(C2CCC(F)(F)CC2)=C(c2cc(-c3ccc(NC(=O)c4cscn4)cc3)sc2C(=O)O)C1` [Example 200, 3-(4-(4,4-difluorocyclohexyl)-1-methyl-1,2,5,6-tetrahydropyridin-3-yl)-5-(4-(thiazole-4-carboxamido)phenyl)thiophene-2-carboxylic acid] showed a pIC50 of over 5.52.
`CC1CCC(C2=C(c3cc(-c4ccc(N)nc4)sc3C(=O)O)CCN(C)C2)CC1` (stereo not shown) [Example 203, 5-(6-aminopyridin-3-yl)-3-(1-methyl-5-(4-methylcyclohexyl)-1,2,3,6-tetrahydropyridin-4-yl)thiophene-2-carboxylic acid] gave a pIC50 of over 5.52.
`CN1CCC(c2cc(-c3ccccc3)sc2C(=O)O)=C(C2CCCCCC2)C1` [Example 206, 3-(5-Cycloheptyl-1-methyl-1,2,3,6-tetrahydro-pyridin-4-yl)-5-phenyl-thiophene-2-carboxylic acid] gave a pIC50 of over 5.52.
In the case of `CN1CCC(c2cc(-c3ccccc3)sc2C(=O)O)=C(C2CCCC2)C1` [Example 207, 3-(5-Cyclopentyl-1-methyl-1,2,3,6-tetrahydro-pyridin-4-yl)-5-phenyl-thiophene-2-carboxylic acid], the pIC50 was 5.00 to 5.52.
`CN1CCC(c2cc(-c3ccccc3)sc2C(=O)O)=C(c2ccc(Cl)cc2)C1` [Example 208, 3-[5-(4-Chloro-phenyl)-1-methyl-1,2,3,6-tetrahydro-pyridin-4-yl]-5-phenyl-thiophene-2-carboxylic acid] gave a pIC50 of under 5.00.
With `CCCCCC1=C(c2cc(-c3ccccc3)sc2C(=O)O)CCN(C)C1` [Example 209, 3-(1-Methyl-5-pentyl-1,2,3,6-tetrahydro-pyridin-4-yl)-5-phenyl-thiophene-2-carboxylic acid] the pIC50 was 5.00 to 5.52.
With `CN1CCC(C2CCCCC2)=C(c2cc(-c3ccc(NC(=O)c4cscn4)cc3)sc2C(=O)O)C1` [Example 210, 3-(4-Cyclohexyl-1-methyl-1,2,5,6-tetrahydro-pyridin-3-yl)-5-{4-[(thiazole-4-carbonyl)-amino]-phenyl}-thiophene-2-carboxylic acid] the pIC50 was over 5.52.
In the case of `CN1CCC(c2cc(C#CC(C)(C)C)sc2C(=O)O)=C(C2CCCCC2)C1` [Example 211, 3-(5-Cyclohexyl-1-methyl-1,2,3,6-tetrahydro-pyridin-4-yl)-5-(3,3-dimethyl-but-1-ynyl)-thiophene-2-carboxylic acid], the pIC50 was over 5.52.

What follows are molecules tested on HCV1b replicon (assay: HCV replicon assay (Huh-7 cell line with HCV1b replicon containing luciferase reporter) and EC50 determination). Conditions: Hepatitis C virus; Table 1; Huh-7 HCV1b replicon luciferase reporter, 72 hr, triplicate.
Format: cell-based
Protocol: Example 213—HCV Replicon Assay and EC50 Determination
The antiviral activity of compounds against hepatitis C virus was determined by a hepatitis C virus replicon reporter cell line developed by Bartenschlager (Lohmann et al., Science 1999, 285:110-113; Bartenschlager et al., Antiviral Res 2003, 60:91-102). This cell-based assay utilized a liver cell carcinoma (Huh-7) cell line stably transformed with an HCV1b replicon containing a luciferase reporter gene. Varied concentrations of compounds were added to the reporter cell line, and further incubated at 37° C. for 72 hr in DMEM supplemented with 10% FCS. The inhibitory effects of experimental compounds or the reference compound, interferon alpha (INFα), on HCV replication were measured by luciferase activity using the Britelite™ plus luminescence reporter gene kit (Perkin Elmer, Shelton, Conn.). The Britelite plus reagent was added to the 96-well plates containing the HCV reporter cells, and luminescence was measured within 15 min using a Wallac 1450 Microbeta® Trilux liquid scintillation counter. EC50 values were calculated using GraFit 6 and GraphPad Prism 5 from triplicate HCV replicon assays.
Work on `CN1CCC(C2CCC(F)(F)CC2)=C(c2cc(-c3ccc(NC(=O)c4cscn4)cc3)sc2C(=O)O)C1` [Example 200, 3-(4-(4,4-difluorocyclohexyl)-1-methyl-1,2,5,6-tetrahydropyridin-3-yl)-5-(4-(thiazole-4-carboxamido)phenyl)thiophene-2-carboxylic acid] yielded a pEC50 of 5.00 to 5.52.

Same assay, conditions: Hepatitis C virus; Table 2; Huh-7 HCV1b replicon luciferase reporter, 72 hr, triplicate
Molecule `CC1CCC(C2=C(c3cc(-c4ccc(NC(=O)c5cscn5)cc4)sc3C(=O)O)CN(CC(O)CO)CC2)CC1` (stereo not shown) [Example 190, 3-(1-(2,3-dihydroxypropyl)-4-(4-methylcyclohexyl)-1,2,5,6-tetrahydropyridin-3-yl)-5-(4-(thiazole-4-carboxamido)phenyl)thiophene-2-carboxylic acid] has a pEC50 of over 5.52.
